# Experimental data reported in publication PMC8351955, “Targeting Mycobacterium tuberculosis response to environmental cues for the development of effective antitubercular drugs” (PLoS Biology, 2021).
# Where “and” joins values, the source holds several entries; their conditions need not be identical. Equal values may be shown once. Read-outs that look alike come from different tables or passages of the source.
# Experiments:
# [1] = Mouse plasma protein binding; type: in vitro ADME
# Procedure: Assays examining mouse and human liver microsomal stability, kinetic aqueous solubility, mouse and human plasma protein binding and stability, and human cytochrome P450 inhibition characteristics of the compounds were run by BioDuro (San Diego, CA), using standard protocols as previously described [37]. hERG inhibition assays were also performed by BioDuro.
# [2] = test system: CDC1551(rv2390c′::GFP) reporter Mtb strain; settings: for Normalized % induction: Fig. 2C, DMSO = 100
# [3] = test system: CDC1551(rv1405c′::GFP) reporter Mtb strain; experiment: microbe, parasite or virus in culture; type: cell-based, Mycobacterium tuberculosis; settings: for NPA - rv1405c'::GFP, average: Fig 1D
# [4] = test system: macrophage phagosomal [Cl−] in BMDMs; experiment: Phagosomal maturation assay, BAC/AF594 beads (Cl− readout); type: cell-based, mouse
# Procedure: Carboxyfluorescein (pH readout), DQ-BSA/Alexa Fluor 594 (AF594) (proteolysis readout), and BAC/AF594 (Cl^− readout) beads were generated essentially as previously described, except that 10,10′-Bis[3-carboxylpropyl]-9,9′-biacridinium dinitrate di-NHS ester (BAC-SE) was purchased from emp Biotech LLC. BMDMs were isolated from C57BL/6J mice (The Jackson Laboratory) and maintained as described above. […] Assay buffer consisted of PBS (pH 7.2), supplemented with 5% FBS, 5 mM dextrose, 1 mM CaCl2, 2.7 mM KCl, and 0.5 mM MgCl2 in the case of assays with the carboxyfluorescein or DQ-BSA/AF594 beads. For assays with the BAC/AF594 beads, assay buffer consisted of PBS (pH 7.2), supplemented with 5% FBS, 5 mM dextrose, 1 mM calcium acetate, 1.35 mM K2SO4, and 0.5 mM MgSO4 [9]. Sensor beads at approximately 2 to 5 beads/macrophage in appropriate assay buffer were finally added, with data acquisition on a Biotek Synergy H1 microplate reader with bottom read signal detection started within 2 to 3 minutes of bead addition. Excitation/emission wavelengths were 450 nm/520 nm and 490 nm/520 nm for carboxyfluorescein, 490 nm/520 nm for DQ-BSA, 365 nm/505 nm for BAC, and 590 nm/617 nm for AF594. Each experiment was run with a total of 3 to 5 replicate wells/condition, with temperature maintained at 37°C throughout the assay. Wells were read every 2 minutes for 2 hours for the carboxyfluorescein bead assays, every 2 minoutes for 4 hours for the DQ-BSA/AF594 bead assays, and every 1 minute for 2 hours for the BAC/AF594 bead assays. Analyses of the results were performed as previously described.
smiles,measurement,setting,value
"CCSc1ncc(CN2CCN(c3nc4ccccc4o3)CC2)cn1 [C6, 2-(4-((2-(ethylthio)pyrimidin-5-yl)methyl)piperazin-1-yl)benzo[d]oxazole]",fraction unbound,[1],0.03
same,Normalized % induction,[2]; average of 3 replicates,141.019%
same,Normalized % induction,[2]; individual replicates,121.516% and 141.974% and 159.566%
same,Ability to increase rv2390c′::GFP reporter signal in high [Cl−],[2]; pH 7,increased rv2390c′::GFP reporter signal
same,"NPA - rv1405c'::GFP, average",[3]; 0.0390625 µM,91.7667%
same,"NPA - rv1405c'::GFP, average",[3]; 0.078125 µM,104.333%
same,"NPA - rv1405c'::GFP, average",[3]; 0.15625 µM,97.8333%
same,"NPA - rv1405c'::GFP, average",[3]; 0.3125 µM,95.1667%
same,"NPA - rv1405c'::GFP, average",[3]; 0.625 µM,93.7333%
same,"NPA - rv1405c'::GFP, average",[3]; 1.25 µM,103.333%
same,"NPA - rv1405c'::GFP, average",[3]; 2.5 µM,124.667%
same,"NPA - rv1405c'::GFP, average",[3]; 5 µM,141%
same,"NPA - rv1405c'::GFP, average",[3]; 10 µM,137.333%
same,"NPA - rv1405c'::GFP, average",[3]; 20 µM,161.5%
same,activity at 10 µM,"[3]; Mycobacterium tuberculosis, read-out: rv1405c'::GFP secondary assay NPA% at 10 µM compound",137 ± 15%
same,activity at 20 µM,"[3]; Mycobacterium tuberculosis, read-out: rv1405c'::GFP secondary assay NPA% at 20 µM compound",162 ± 3.5%
same,Effect on increase in [Cl−] during macrophage phagosomal maturation,"[4]; 10 μM, uninfected BMDMs",no significant effect
same,"AF594/BAC fluorescence, Average",[4]; Time 0 minutes,0.6122
same,"AF594/BAC fluorescence, replicates",[4]; Time 0 minutes,0.5839 and 0.6162 and 0.6235 and 0.6146 and 0.6227
same,"AF594/BAC fluorescence, Average",[4]; Time 1 minutes,0.5459
same,"AF594/BAC fluorescence, replicates",[4]; Time 1 minutes,0.5421 and 0.5573 (2×) and 0.546 and 0.5266
same,"AF594/BAC fluorescence, Average",[4]; Time 2 minutes,0.5408
same,"AF594/BAC fluorescence, replicates",[4]; Time 2 minutes,0.5319 and 0.5419 and 0.5358 and 0.5431 and 0.5513
same,"AF594/BAC fluorescence, Average",[4]; Time 3 minutes,0.5344
same,"AF594/BAC fluorescence, replicates",[4]; Time 3 minutes,0.5344 and 0.5364 and 0.543 and 0.5118 and 0.5462
same,"AF594/BAC fluorescence, Average",[4]; Time 4 minutes,0.5424
same,"AF594/BAC fluorescence, replicates",[4]; Time 4 minutes,0.5625 and 0.5432 and 0.5412 and 0.5272 and 0.538
same,"AF594/BAC fluorescence, Average",[4]; Time 5 minutes,0.5329
same,"AF594/BAC fluorescence, replicates",[4]; Time 5 minutes,0.545 and 0.5366 and 0.532 and 0.5179 and 0.5328
same,"AF594/BAC fluorescence, Average",[4]; Time 7 minutes,0.5364
same,"AF594/BAC fluorescence, replicates",[4]; Time 7 minutes,0.548 and 0.5294 and 0.5467 and 0.5183 and 0.5395
same,"AF594/BAC fluorescence, Average",[4]; Time 9 minutes,0.5382
same,"AF594/BAC fluorescence, replicates",[4]; Time 9 minutes,0.5413 and 0.5472 and 0.5302 and 0.5353 and 0.5369
same,"AF594/BAC fluorescence, Average",[4]; Time 11 minutes,0.548
same,"AF594/BAC fluorescence, replicates",[4]; Time 11 minutes,0.555 and 0.5414 and 0.5741 and 0.5202 and 0.5492
same,"AF594/BAC fluorescence, Average",[4]; Time 13 minutes,0.5691
same,"AF594/BAC fluorescence, replicates",[4]; Time 13 minutes,0.5666 and 0.5688 and 0.5877 and 0.5543 and 0.5682
same,"AF594/BAC fluorescence, Average",[4]; Time 15 minutes,0.5821
same,"AF594/BAC fluorescence, replicates",[4]; Time 15 minutes,0.5799 and 0.5786 and 0.5955 and 0.5676 and 0.5889
same,"AF594/BAC fluorescence, Average",[4]; Time 17 minutes,0.5935
same,"AF594/BAC fluorescence, replicates",[4]; Time 17 minutes,0.5853 and 0.6046 and 0.6099 and 0.5629 and 0.6045
same,"AF594/BAC fluorescence, Average",[4]; Time 19 minutes,0.603
same,"AF594/BAC fluorescence, replicates",[4]; Time 19 minutes,0.5752 and 0.6161 and 0.6348 and 0.5964
same,"AF594/BAC fluorescence, Average",[4]; Time 21 minutes,0.6193
same,"AF594/BAC fluorescence, Average",[4]; Time 23 minutes,0.618
same,"AF594/BAC fluorescence, Average",[4]; Time 25 minutes,0.6229
same,"AF594/BAC fluorescence, Average",[4]; Time 27 minutes,0.6239
same,"AF594/BAC fluorescence, Average",[4]; Time 29 minutes,0.6453
same,"AF594/BAC fluorescence, Average",[4]; Time 31 minutes,0.6313
same,"AF594/BAC fluorescence, Average",[4]; Time 33 minutes,0.6482
same,"AF594/BAC fluorescence, Average",[4]; Time 35 minutes,0.6392
same,"AF594/BAC fluorescence, Average",[4]; Time 37 minutes,0.6481
same,"AF594/BAC fluorescence, Average",[4]; Time 39 minutes,0.6418
same,"AF594/BAC fluorescence, Average",[4]; Time 41 minutes,0.6532
same,"AF594/BAC fluorescence, Average",[4]; Time 43 minutes,0.6524
same,"AF594/BAC fluorescence, Average",[4]; Time 45 minutes,0.6458
same,"AF594/BAC fluorescence, Average",[4]; Time 46 minutes,0.6438
same,"AF594/BAC fluorescence, Average",[4]; Time 47 minutes,0.6518
same,"AF594/BAC fluorescence, Average",[4]; Time 48 minutes,0.6423
same,"AF594/BAC fluorescence, Average",[4]; Time 49 minutes,0.6502
same,"AF594/BAC fluorescence, Average",[4]; Time 50 minutes,0.6427
same,"AF594/BAC fluorescence, Average",[4]; Time 51 minutes,0.6412
same,"AF594/BAC fluorescence, Average",[4]; Time 52 minutes,0.6437
same,"AF594/BAC fluorescence, Average",[4]; Time 53 minutes,0.6415
same,"AF594/BAC fluorescence, Average",[4]; Time 54 minutes,0.6535
same,"AF594/BAC fluorescence, Average",[4]; Time 55 minutes,0.646
same,"AF594/BAC fluorescence, Average",[4]; Time 56 minutes,0.6496
same,"AF594/BAC fluorescence, Average",[4]; Time 57 minutes,0.6559
same,"AF594/BAC fluorescence, Average",[4]; Time 58 minutes,0.6523
same,"AF594/BAC fluorescence, Average",[4]; Time 59 minutes,0.6473
same,"AF594/BAC fluorescence, Average",[4]; Time 60 minutes,0.6412
same,"AF594/BAC fluorescence, Average",[4]; Time 61 minutes,0.6401
same,"AF594/BAC fluorescence, Average",[4]; Time 62 minutes,0.6424
same,"AF594/BAC fluorescence, Average",[4]; Time 63 minutes,0.6429
same,"AF594/BAC fluorescence, Average",[4]; Time 64 minutes,0.6497
same,"AF594/BAC fluorescence, Average",[4]; Time 65 minutes,0.6542
same,"AF594/BAC fluorescence, Average",[4]; Time 66 minutes,0.6415
same,"AF594/BAC fluorescence, Average",[4]; Time 67 minutes,0.656
same,"AF594/BAC fluorescence, Average",[4]; time 6 minutes,0.5344
same,"AF594/BAC fluorescence, replicates",[4]; time 6 minutes,0.55 and 0.5263 and 0.5408 and 0.5119 and 0.5432
same,"AF594/BAC fluorescence, Average",[4]; time 8 minutes,0.5381
same,"AF594/BAC fluorescence, replicates",[4]; time 8 minutes,0.5319 and 0.5466 and 0.5386 and 0.538 and 0.5353
same,"AF594/BAC fluorescence, Average",[4]; time 10 minutes,0.5471
same,"AF594/BAC fluorescence, replicates",[4]; time 10 minutes,0.5453 and 0.5491 and 0.5758 and 0.5298 and 0.5354
same,"AF594/BAC fluorescence, Average",[4]; time 12 minutes,0.5563
same,"AF594/BAC fluorescence, replicates",[4]; time 12 minutes,0.5501 and 0.57 and 0.5742 and 0.5198 and 0.5673
same,"AF594/BAC fluorescence, Average",[4]; time 14 minutes,0.5706
same,"AF594/BAC fluorescence, replicates",[4]; time 14 minutes,0.5628 and 0.5864 and 0.5841 and 0.542 and 0.5776
same,"AF594/BAC fluorescence, Average",[4]; time 16 minutes,0.5854
same,"AF594/BAC fluorescence, replicates",[4]; time 16 minutes,0.5806 and 0.5704 and 0.6264 and 0.5665 and 0.5832
same,"AF594/BAC fluorescence, Average",[4]; time 18 minutes,0.5961
same,"AF594/BAC fluorescence, replicates",[4]; time 18 minutes,0.5808 and 0.5961 and 0.6277 and 0.5767 and 0.5992
same,"AF594/BAC fluorescence, Average",[4]; time 20 minutes,0.6147
same,"AF594/BAC fluorescence, replicates",[4]; time 20 minutes,0.6043
same,"AF594/BAC fluorescence, Average",[4]; time 22 minutes,0.6194
same,"AF594/BAC fluorescence, Average",[4]; time 24 minutes,0.6332
same,"AF594/BAC fluorescence, Average",[4]; time 26 minutes,0.631
same,"AF594/BAC fluorescence, Average",[4]; time 28 minutes,0.638
same,"AF594/BAC fluorescence, Average",[4]; time 30 minutes,0.6338
same,"AF594/BAC fluorescence, Average",[4]; time 32 minutes,0.6382
same,"AF594/BAC fluorescence, Average",[4]; time 34 minutes,0.6489
same,"AF594/BAC fluorescence, Average",[4]; time 36 minutes,0.6508
same,"AF594/BAC fluorescence, Average",[4]; time 38 minutes,0.652
same,"AF594/BAC fluorescence, Average",[4]; time 40 minutes,0.6508
same,"AF594/BAC fluorescence, Average",[4]; time 42 minutes,0.6499
same,"AF594/BAC fluorescence, Average",[4]; time 44 minutes,0.6458
